Experimental data taken from US20150160214A1, “Quantitation of Cellular Adhesion Dynamics Across Immobilized Receptors Under Rheological Shear Flow” (Mayo Foundation for Medical Education and Research, priority 2013, published 2015).
Several values for one entry are separate records, joined by “and”; a condition that tells them apart may be missing. Equal entries are not always repeated.

How the values were obtained:
[1] = Far-UV CD spectra, secondary structure content (Example 1); assay type: physicochemical; conditions: free in solution
From the text: Both proteins show a spectrum dominated by relatively high α-helical content as indicated by the two minima at λ=222 nm and 208 nm. […] By contrast, the spectrum of the N-terminal peptide is dominated by the contribution of random coil-structure and spectrally equivalent to a peptide containing a scrambled sequence but identical amino acid composition.

platelet GP1bα = target: T1, platelet GP1bα (Homo sapiens, UniProt P04275); assay: Platelet pause times and translocation velocities on immobilized A1 under shear flow, parallel-plate flow chamber (Example 1); assay type: cell-based
T1 construct: perfused at low shear to enable platelets to attach to the surface immobilized domains; endogenous in cells; host or cells: platelets in citrated whole blood of healthy donors
From the text: (§1) To understand the effect of the N-terminal peptide on the function of the A1-domain of vWF, the protein was expressed with (A1-1238) and without the N-terminal peptide (A1-1261). The inventor used a flow chamber to measure the dynamics of platelet interactions with A1-1238 and A1-1261. Each domain variant was immobilized on glass slides with a modified Cu^2+ chelating chemistry that enabled surface capture via the N-terminally fused histidine tag. This method ensured reproducible capture of the proteins eliminating possible structural issues associated with nonspecific immobilization on plastic or glass. The slides were completely inert to platelets. Next, 1 mL of citrated whole blood followed by Tris buffered saline was perfused at low shear to enable platelets to attach to the surface immobilized domains. After red cells were perfused away with buffer, the translocation of the remaining attached platelets over the surfaces was recorded at each shear rate and the velocities and pause times calculated from the coordinate data of each platelet on the surface as described in the methods. […] In addition, the translocation velocities were increased for A1-1238 relative to A1-1261. To determine if this N-terminal sequence could inhibit the catch bond when free in solution, the inventor incubated surface immobilized A1-1261 with excess free peptide and added the free peptide to 1 mL of whole blood and to our perfusion buffer and performed the assay.
(§2) Determination of platelet pause times. Determination of platelet pause times A Glycotech† rectangular parallel-plate flow chamber was mounted to slides with a chelated Cu 21 surface obtained from Microsurfaces Inc. # to which the A1-1261 and A1-1238 domains in TBS were immobilized by the 63His-Tag. Citrated whole blood (1 mL) obtained from informed consent of healthy donors with approval from the Baylor College of Medicine institutional review board followed by buffer was perfused through the chamber at 300s21 for A1-1261 and 700s21 for A1-1238 shear rate to attach platelets to the surface immobilized proteins using a syringe driven variable flow rate pump. The shear was increased incrementally and 1 min movies were recorded at 25 frames/s in phase contrast with 232 pixel binning on a Zeiss Axiocam MRm camera attached to a Zeiss Axio Observer D1 inverted microscope. Tracking analysis was performed using Mediacybernetics ImagePro Premier§. The resulting X-Y coordinate data for each platelet track was differentiated into instantaneous velocities using a Savitzky-Golay algorithm (Savitzky:1964) with a five data point window size and a second-order polynomial implemented into a Mathamatica notebook. These platelet tracks were retained for statistical analysis if the platelet was present for at least 1 s and travelled a total distance greater than 1 lm. Distance travelled in pixels was converted to lm given the camera pixel size=6.45 μm^2, pixel binning, and microscope magnification=400×. Pause times were determined by the amount of time (seconds) a platelets velocity was =0±0.13 μm/s, within the noise. Pause times for all platelet tracks are reported as the mean of the medians. Examples of this analysis for individual platelets and for multiple platelets are provided in the Supporting Information.
(§3) Frame by frame platelet trajectory analysis. Tracking coordinates of individual platelets in units of pixels were exported from ImagePro Premier as a text file and imported into a Mathematica notebook that calculates a Savitzky-Golay first derivative of the total distance traveled over time (Savitzky:1964). The distance was calculated from the X and Y coordinates with the following equation.
(§4) Pause times were determined from the length of time the platelet velocity remained within 0±4 pixel/sec=0.129 μm/sec as illustrated in FIG. 8B. Median pause times were calculated from velocity time profiles for all platelet tracks, stored in a list and translated to histograms for multiple platelets. […]

[2] = system: T2, platelet GP1bα (Homo sapiens); assay: as above; assay type: cell-based; conditions: 300 μM peptide incubated with immobilized A1-1261; 66 μM in whole blood and buffer
T2 construct: perfused at low shear to enable platelets to attach to the surface immobilized domains; endogenous in cells; host or cells: platelets in citrated whole blood of healthy donors
T2 sequence (P04275 1261-1471): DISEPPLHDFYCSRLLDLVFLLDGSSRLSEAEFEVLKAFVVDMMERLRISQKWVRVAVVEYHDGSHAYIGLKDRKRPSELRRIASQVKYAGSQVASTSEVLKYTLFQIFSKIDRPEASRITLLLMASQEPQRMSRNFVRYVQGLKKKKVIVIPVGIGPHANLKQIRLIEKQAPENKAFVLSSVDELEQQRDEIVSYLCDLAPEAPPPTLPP
From the text: as §1, §2, §3, §4

A1-1261 = target: T3, A1-1261 (Homo sapiens, UniProt P04275); assay: Binding of free N-terminal peptide to A1-1261 from thermal unfolding enthalpy (tryptophan fluorescence)
T3 construct: A1-1261 (amino acids D1261-P1471); made in house
From the text: This would imply a specific interaction between this N-terminal sequence and the A1 domain when covalently linked in sequence. The only way to examine such a stabilization using spectroscopy was the measurement of thermal unfolding via fluorescence. Since the N-terminal peptide also contains a single tyrosine residue, the excitation wavelength was changed to λ=295 nm in order to measure tryptophan fluorescence and the effect of the peptide on the unfolding of the A1-domain was observed indirectly. Thermal scans of 2 μM A1-1261 were performed as a function of increasing amounts of the N-terminal peptide at 2° Celsius/min. […] Thermal scans were also done in the presence of a peptide with the same amino acid composition, but a scrambled sequence. The inset of FIG. 7A compares the raw fluorescence thermal scans in the presence of 300 μM scrambled and N-terminal peptides. Unfolding in the presence of excess scrambled peptide was equivalent to unfolding in the absence of either peptide. […] Fitting the enthalpy data to a simple single site binding model yields a dissociation constant of ≈46±6 μM.
Prior to all spectroscopic thermal scans, protein samples were equilibrated at 10° Celsius for 15 min to obtain a stable baseline. CD thermal scans between 10 and 95° Celsius were recorded at λ=222 nm using a protein concentration of 1 or 2 μM in a 1 cm quartz cell under moderate stirring. Scan rates were 0.5, 1.0, 1.5 and 2.0° Celsius/min. Integration time for each data point was 20 s with a 1 nm bandwidth. Fluorescence thermal scans between 10 and 95 Celsius were recorded at an emission λ=359 nm after excitation λ=280 nm or λ=295 nm using 2 μM protein in a 1 cm quartz cell with moderate stirring. Scan rates were 0.4 or 0.6, 0.9, 1.6 and 2.0° Celsius/min. At each temperature, relative fluorescence intensity was collected for 4 s and averaged. Thermal scans in the presence of N-terminal peptide at 2.0° Celsius/min were preceded by 1 h incubations at 20° Celsius with 0.02-300 μM peptide.
For the thermal unfolding studies in the presence of peptide, the inventor treated the change in enthalpy of unfolding, ΔHT*^‡ as an observable directly proportional to the degree of binding, X, because the T* was not dependent on peptide concentration.
For the simple single site binding model, A1+P<->A1P, where P is the peptide, the degree of binding is given by
where K is the binding affinity and the free peptide, [P], concentration is given in terms of the total protein, A1T, and peptide, PT, concentrations.

H-QEPGGLVVPPTDAPVSPTTLYVE-OH [N-terminal peptide]
β and random coil content of the sequence [1]: > 80%
Effect of free peptide on platelet translocation velocities on immobilized A1-1261 (platelet GP1bα; 300 μM peptide incubated with immobilized A1-1261, 66 μM in whole blood and buffer): increase in translocation velocities
Effect of free peptide on platelet pause times or translocation velocities on immobilized A1-1238 (platelet GP1bα; free peptide added): did not significantly change the pause times or translocation velocities
Effect of free peptide on platelet pause times on immobilized A1-1261 [2]: significant decrease in pause times
Effect of peptide on unfolding enthalpy of A1-1238 (A1-1261): did not change the unfolding enthalpy
Kd (A1-1261; single site binding model fit to unfolding enthalpy, 2 μM A1-1261, 2° Celsius/min, read-out: Dissociation constant (KD) of N-terminal peptide binding to A1-1261): 46 µM and ~46 µM
